According to ChEMBL document CHEMBL2028040, “Malaria Box”:

How the values were obtained:
[1] = MMV: Cytotoxicity against human fibroblasts (MRC-5) cells.; conditions: MRC-5 cells (human fibroblasts)
[2] = tested on: Trypanosoma cruzi; assay: MMV: Inhibition of Trypanosoma cruzi (Tulahuen C4 LacZ) (Chagas in vitro).; format: functional, organism-based
[3] = tested on: Trypanosoma brucei brucei; assay: MMV: Inhibition of Trypanosoma brucei brucei (Squib 427) (HAT in vitro).; format: functional, organism-based
[4] = tested on: Leishmania infantum; assay: MMV: Inhibition of Leishmania infantum (MHOM/MA/BE/67) in vitro.; format: functional, organism-based
[5] = tested on: Trypanosoma brucei rhodesiense; assay: MMV: Inhibition of Trypanosoma brucei rhodesiense (STIB 900) (HAT in vitro).; format: functional, organism-based
[6] = tested on: Plasmodium falciparum; assay: MMV: Inhibition of Plasmodium falciparum 3D7 at 5uM compound concentration.; format: functional
[7] = tested on: Plasmodium falciparum; assay: MMV: Inhibition of Plasmodium falciparum 3D7 (EC50).; format: functional, organism-based

Compound | IC50 [1] [µM] | IC50 [2] [µM] | IC50 [3] [µM] | IC50 [4] [µM] | IC50 [5] [µM] | inhibition at 5 µM [6] [%] | EC50 [7] [µM]
COc1ccc(-c2cc3c(nn2)-c2ccccc2C3=O)cc1 | > 32 | > 32 | > 32 | > 32 | > 32 | 97 | 
Nc1nc(Nc2cccc(F)c2)nc2ccccc12 | > 32 | 20.2 | 27.3 | 16 | 16.8 |  | 1
COc1ccc2nc(C)cc(Nc3ccccc3O)c2c1 | > 32 | > 32 | > 32 | > 32 | > 32 |  | 0.686
Cc1cc(C)cc(Nc2cc(C)nc3nc(C(F)(F)F)nn23)c1 | > 32 | > 32 | > 32 | > 32 | > 32 |  | 0.0857
CCOC(=O)c1cnc2ccc(CC)cc2c1O | > 32 | > 32 | > 32 | > 32 | > 32 |  | 0.351
CCN(CC)CCNc1ccnc2cc(Cl)ccc12 | > 32 | 6.35 | 10.2 | 17.3 | 10.3 |  | 0.0581
Cc1cc(Nc2ccc3ccccc3c2)n2ncnc2n1 | > 32 | > 32 | > 32 | > 32 | > 32 |  | 0.242
COc1cccc(Nc2nc(NCCO)c3ccccc3n2)c1 | 26.3 | 13.3 | 14.3 | 4.32 | 6.75 |  | 0.854
O=C(O)C1Cc2c([nH]c3ccccc23)C(c2ccc(Cl)cc2Cl)N1 (configuration not stated) | > 32 | > 32 | > 32 | > 32 | > 32 |  | 0.35
COCCNCC(O)Cn1c2ccc(Cl)cc2c2cc(Cl)ccc21 (configuration not stated) | 4.81 | 3.89 | 0.711 | 2.97 | 0.357 |  | 1.01
FC(F)(F)c1ccc(Nc2nnnc3ccccc23)cc1 | > 32 | > 32 | > 32 | > 32 | > 32 | 77 | 
O=c1nc(C=Cc2ccc(Br)cc2)oc2ccccc12 | 4 | 4.17 | 16 | 4.06 | 16.1 | 94 | 
COCCNC(=O)c1ccc(OC2CCN(Cc3ccc(F)c(F)c3)CC2)c(Cl)c1 | > 32 | > 32 | > 32 | > 32 | 16.1 | 91 | 
O=C(NC1CCCC1)c1ccc(N2CCC(NCc3cccc(C(F)(F)F)c3)CC2)cc1 | > 32 | 21.3 | > 32 | 16.6 | 14.4 | 93 | 
CCN(CC)CCNc1ccnc2cc3ccccc3cc12 | 12.2 | 14.8 | 4.06 | 4.32 | 3.94 |  | 0.391
COc1ccc(Nc2cc(C)nc(NCc3ccccc3)n2)cc1 | 13.5 | 1.04 | 2.95 | 4.32 | 3.86 |  | 0.467
N=c1c2ccccc2nnn1-c1cccc(C(F)(F)F)c1 | > 32 | > 32 | > 32 | > 32 | > 32 | 83 | 
COc1ccc2c(c1)OC(O)(C(F)(F)C(F)(F)F)CC2=O (configuration not stated) | 25.6 | 16.1 | > 32 | 25.4 | 17.1 |  | 0.283
Cc1ccc(OCCCCCCNCCO)c(C)c1 | > 32 | 16 | 3.72 | 16.1 | 3.94 | 49 | 
O=C(c1ccccc1F)N(Cc1ccc(Cl)cc1)c1ccccn1 | > 32 | > 32 | > 32 | > 32 | > 32 | 59 | 
COCCn1c(C)nc2ccccc2c1=O | > 32 | > 32 | > 32 | > 32 | > 32 | 59 | 
O=C(Nc1ccc(Cl)cc1)N1CCN(c2ccc3nncn3n2)CC1 | > 32 | > 32 | > 32 | > 32 | > 32 | 62 | 
Cc1cc(N(C)C)nc(Nc2ccc(NC(=O)Nc3ccccc3)cc2)n1 | 23.8 | 1.03 | 5.54 | 4.32 | 1.25 |  | 1.15
CN(C)c1ccc(-c2nc3cc(N)ccc3[nH]2)cc1 | > 32 | 17.4 | 19.6 | > 32 | 18 | 64 | 

Compound | IC50 [1] [µM] | IC50 [2] [µM] | IC50 [3] [µM] | IC50 [4] [µM] | IC50 [5] [µM] | inhibition at 5 µM [6] [%] | EC50 [7] [µM]
O=C(CSc1ccc2nnc(-c3cccc(F)c3)n2n1)Nc1ccc2c(c1)OCO2 | > 32 | > 32 | > 32 | > 32 | > 32 | 92 | 
CCCC(c1nnnn1C1CCCCC1)N1CCN(C(=O)c2ccco2)CC1 (configuration not stated) | > 32 | > 32 | > 32 | > 32 | > 32 | 82 | 
Cc1ccc(CN2CCC(C(=O)Nc3ccc(-c4cc5ccccc5[nH]4)cc3)CC2)o1 | 15.7 | 15.9 | 3.33 | 13.6 | 0.971 | 77 | 
O=C(Nc1ccsc1C(=O)NC1CCCCC1)c1ccc(F)cc1 | > 32 | > 32 | > 32 | > 32 | > 32 | 86 | 
O=C(Nc1ccc(Cl)cc1C(=O)Nc1ccncc1)c1ccc(Cl)cc1Cl | > 32 | > 32 | > 32 | > 32 | > 32 | 94 | 
CC(C)(C)c1ccc(C(=O)Nc2c3c(nn2-c2cccc(Cl)c2)CSC3)cc1 | > 32 | > 32 | 16.1 | > 32 | > 32 | 93 | 
COc1ccc(N2CCN(C(CNC(=O)CC(C)(C)C)c3ccc4c(c3)OCO4)CC2)cc1 (configuration not stated) | > 32 | 19.7 | > 32 | > 32 | 27.6 | 95 | 
COc1ccc(C2N(C)c3ccccc3N2C)cc1 | > 32 | > 32 | > 32 | > 32 | > 32 | 62 | 
O=C(Nc1ccccc1O)c1ccc(-c2ccc(Cl)cc2Cl)o1 | > 32 | > 32 | 13.7 | > 32 | 13.5 | 97 | 
Oc1ccc(Br)cc1CN1CCN(Cc2cccc(F)c2)CC1 | > 32 | 12.6 | > 32 | 25.4 | 16.7 |  | 1.03
Oc1ccc(C(=C(Cl)Cl)c2ccc(O)cc2)cc1 | > 32 | > 32 | > 32 | > 32 | > 32 | 95 | 
CCOc1ccc(-c2nc(NC(=O)c3cccc(S(C)(=O)=O)c3)sc2C)cc1 | > 32 | > 32 | 14.9 | > 32 | 15.3 | 95 | 
Clc1ccc2[nH]c3c(NCCCN4CCOCC4)ncnc3c2c1 | > 32 | 21.3 | > 32 | > 32 | 3.94 |  | 0.7
COc1ccc(Nc2nc(NCc3ccccc3)c3ccccc3n2)cc1 | 12.4 | 3.55 | 3.84 | 1.01 | 4.03 |  | 0.589
Cc1cc(Nc2ccc(Cl)cc2)n2nc(C(F)(F)F)nc2n1 | > 32 | > 32 | > 32 | > 32 | > 32 |  | 0.212
COc1cc2c(cc1OC)C1=NNC(=O)C1=NC(C)(C)C2 | > 32 | 3.59 | 12.9 | 4.03 | 6.64 |  | 1.04
COc1ccccc1N1CCN(C(CNS(=O)(=O)c2ccc(Cl)cc2)c2cccnc2)CC1 (configuration not stated) | > 32 | 0.899 | 16.2 | > 32 | 16.2 | 93 | 
CCCc1c(C)nc2ccccc2c1O | > 32 | > 32 | > 32 | > 32 | > 32 | 88 | 
OC1CCCCC1C1(NC(=S)Nc2ccccc2)CCCCC1 (configuration not stated) | > 32 | 12.2 | 12.4 | 4.32 | 4.12 | 59 | 
Cc1cc(N2CCN(C3CCCC3)CC2)n2c(nc3ccccc32)c1C#N | > 32 | > 32 | > 32 | > 32 | > 32 |  | 0.683
CCN(CC)CCCNc1nc(-c2ccc(Cl)cc2)nc2ccccc12 | 15.8 | 8.56 | 0.271 | 4 | 0.25 | 92 | 
Cc1ccc(Nc2nc(NCCO)c3ccccc3n2)cc1C | 11.4 | 2.99 | 8.22 | 2.52 | 3.83 |  | 0.428
CN1CCN(c2nc(Nc3ccc(O)cc3)nc3ccccc23)CC1 | > 32 | 11.1 | 4.69 | 13.6 | 3.28 |  | 1.43
